Measurements: patent US12180193B2, “Accelerating fibrosarcoma protein degrading compounds and associated methods of use” (Arvinas Operations, Inc., priority 2020, dated 2024)
Like-named read-outs stand apart in the source and are kept apart here.

Columns and labels:
BRAF V600E = target: T1, BRAF V600E (Homo sapiens, UniProt P15056, V600E); assay: Cellular assay of target protein degradation, T-Rex 293 cells stably transfected with HA-BRAF_V600E (HA immunofluorescence, high content imaging); assay type: cell-based
T1 construct: expressed in transfected cells
T1 sequence (P15056 whole entry V600E): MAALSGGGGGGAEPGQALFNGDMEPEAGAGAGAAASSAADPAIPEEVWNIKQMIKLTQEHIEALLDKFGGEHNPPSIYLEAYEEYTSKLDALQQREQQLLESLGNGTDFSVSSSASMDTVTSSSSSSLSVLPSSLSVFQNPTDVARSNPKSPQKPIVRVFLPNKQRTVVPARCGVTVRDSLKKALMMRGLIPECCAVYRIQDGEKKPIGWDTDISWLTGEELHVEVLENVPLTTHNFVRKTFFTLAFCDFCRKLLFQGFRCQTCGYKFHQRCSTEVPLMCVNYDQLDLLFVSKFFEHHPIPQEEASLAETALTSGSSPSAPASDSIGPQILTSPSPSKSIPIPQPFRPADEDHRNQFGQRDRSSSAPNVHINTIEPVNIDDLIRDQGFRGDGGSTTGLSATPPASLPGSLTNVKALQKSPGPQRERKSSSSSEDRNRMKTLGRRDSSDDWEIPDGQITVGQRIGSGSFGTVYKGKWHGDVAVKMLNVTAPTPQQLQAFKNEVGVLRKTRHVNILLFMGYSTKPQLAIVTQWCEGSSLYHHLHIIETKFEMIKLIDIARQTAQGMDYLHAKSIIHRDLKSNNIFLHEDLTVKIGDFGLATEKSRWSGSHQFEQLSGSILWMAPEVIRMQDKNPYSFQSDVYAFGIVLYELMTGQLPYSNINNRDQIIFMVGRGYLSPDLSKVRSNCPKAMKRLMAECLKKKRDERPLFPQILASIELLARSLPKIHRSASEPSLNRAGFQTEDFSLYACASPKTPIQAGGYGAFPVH
Procedure, shortened: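 Degradation of the HA-tagged construct is measured after 24 h treatment at 37 °C across 1 μM to 0.1 nM in 0.1% DMSO, in doxycycline-induced (1 ng/mL) cells. DC50 and Dmax come from HA fluorescence imaging.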

BRAF G466V = target: T2, BRAF G466V (Homo sapiens, UniProt P15056, G466V); assay: Cellular assay of target protein degradation, T-Rex 293 cells stably transfected with HA-BRAF G466V (HA immunofluorescence, high content imaging); assay type: cell-based
T2 construct: expressed in transfected cells
T2 sequence (P15056 whole entry G466V): as the sequence (P15056 whole entry V600E) above, with G466V, E600V counted along it
Procedure, shortened: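 Dose range spans 30 nM to 3 pM (0.1% DMSO) over 24 hours at 37° C, in cells induced with 0.75 ng/mL doxycycline. Fixed cells are probed with anti-HA antibody overnight at 4° C, then imaged; half-maximal degradation and maximum degradation are derived.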

[1] = half maximal degradation, T-Rex 293 HA-BRAF V600E; read-out: BRaf V600E DC50
[2] = maximum degradation observed, T-Rex 293 HA-BRAF V600E
[3] = half maximal degradation, T-Rex 293 HA-BRAF G466V; read-out: BRaf G466V DC50
[4] = maximum degradation observed, T-Rex 293 HA-BRAF G466V

DC50 (BRAF V600E; [1]) [nM]	Dmax (BRAF V600E; [2]) [%]	DC50 (BRAF G466V; [3]) [nM]	Dmax (BRAF G466V; [4]) [%]	SMILES	DC50 (BRAF V600E; read-out: BRaf V600E DC50; half maximal degradation, T-Rex 293 HA-BRAF V600E) [nM]	DC50 (BRAF G466V; read-out: BRaf G466V DC50; half maximal degradation, T-Rex 293 HA-BRAF G466V) [nM]
5 to 50	< 35	1 to 10	> 70	O=C1CCC(c2ccc(C3CCN(CCC4CCN(c5ccc(-c6cnc7[nH]cc(C(=O)c8c(F)ccc(NS(=O)(=O)N9CC[C@@H](F)C9)c8F)c7c6)cc5)CC4)CC3)cc2F)C(=O)N1 (stereo partly drawn) [Compound 178, (3R)-N-[3-(5-{4-[4-(2-{4-[4-(2,6-dioxopiperidin-3-yl)-3-fluorophenyl]piperidin-1-yl}ethyl)piperidin-1-yl]phenyl}-1H-pyrrolo[2,3-b]pyridine-3-carbonyl)-2,4-difluorophenyl]-3-fluoropyrrolidine-1-sulfonamide]	–	–
5 to 50	35 to 70	1 to 10	> 70	O=C1CCC(N2Cc3cc(C4CCN(C[C@@H]5[C@H]6CN(c7ccc(-c8cnc9[nH]cc(C(=O)c%10c(F)ccc(NS(=O)(=O)N%11CC[C@@H](F)C%11)c%10F)c9c8)cc7)C[C@@H]56)CC4)ccc3C2=O)C(=O)N1 (stereo partly drawn) [Compound 179, (3R)-N-[3-(5-{4-[(1R,5S,6S)-6-({4-[2-(2,6-dioxopiperidin-3-yl)-1-oxo-2,3-dihydro-1H-isoindol-5-yl]piperidin-1-yl}methyl)-3-azabicyclo[3.1.0]hexan-3-yl]phenyl}-1H-pyrrolo[2,3-b]pyridine-3-carbonyl)-2,4-difluorophenyl]-3-fluoropyrrolidine-1-sulfonamide]	–	–
5 to 50	< 35	1 to 10	> 70	O=C1CCC(N2Cc3ccc(C4CCN(CC5CCN(c6ccc(-c7cnc8[nH]cc(C(=O)c9c(F)ccc(NS(=O)(=O)N%10CC[C@@H](F)C%10)c9F)c8c7)cc6)CC5)CC4)cc3C2=O)C(=O)N1 (stereo partly drawn) [Compound 185, (3R)-N-[3-(5-{4-[4-({4-[2-(2,6-dioxopiperidin-3-yl)-3-oxo-2,3-dihydro-1H-isoindol-5-yl]piperidin-1-yl}methyl)piperidin-1-yl]phenyl}-1H-pyrrolo[2,3-b]pyridine-3-carbonyl)-2,4-difluorophenyl]-3-fluoropyrrolidine-1-sulfonamide]	–	–
5 to 50	35 to 70	< 1	35 to 70	O=C1CCC(c2ccc(C3CCN(CC4CCN(c5ccc(-c6cnc7[nH]cc(C(=O)c8c(F)ccc(NS(=O)(=O)N9CC[C@@H](F)C9)c8F)c7c6)cc5)CC4)CC3)cc2)C(=O)N1 (stereo partly drawn) [Compound 189, (3R)-N-[3-(5-{4-[4-({4-[4-(2,6-dioxopiperidin-3-yl)phenyl]piperidin-1-yl}methyl)piperidin-1-yl]phenyl}-1H-pyrrolo[2,3-b]pyridine-3-carbonyl)-2,4-difluorophenyl]-3-fluoropyrrolidine-1-sulfonamide]	–	–
< 5	35 to 70	1 to 10	> 70	O=C1CCC(N2Cc3cc(C4CCN(CC5CCN(c6ccc(-c7cnc8[nH]cc(C(=O)c9c(F)ccc(NS(=O)(=O)N%10CCC(F)(F)C%10)c9F)c8c7)cc6)CC5)CC4)ccc3C2=O)C(=O)N1 (stereo not shown) [Compound 190, N-[3-(5-{4-[4-({4-[2-(2,6-dioxopiperidin-3-yl)-1-oxo-2,3-dihydro-1H-isoindol-5-yl]piperidin-1-yl}methyl)piperidin-1-yl]phenyl}-1H-pyrrolo[2,3-b]pyridine-3-carbonyl)-2,4-difluorophenyl]-3,3-difluoropyrrolidine-1-sulfonamide]	–	–
5 to 50	35 to 70	< 1	> 70	CCN(C)S(=O)(=O)Nc1ccc(F)c(C(=O)c2c[nH]c3ncc(-c4ccc(N5CCC(CN6CCC(c7ccc8c(c7)CN(C7CCC(=O)NC7=O)C8=O)CC6)CC5)cc4)cc23)c1F (stereo not shown) [Compound 191, 3-(5-{1-[(1-{4-[3-(3-{[ethyl(methyl)sulfamoyl]amino}-2,6-difluorobenzoyl)-1H-pyrrolo[2,3-b]pyridin-5-yl]phenyl}piperidin-4-yl)methyl]piperidin-4-yl}-1-oxo-2,3-dihydro-1H-isoindol-2-yl)piperidine-2,6-dione]	–	–

Further lines, the compound ahead of its results:

SMILES	DC50 (BRAF V600E; [1]) [nM]	Dmax (BRAF V600E; [2]) [%]	DC50 (BRAF G466V; [3]) [nM]	Dmax (BRAF G466V; [4]) [%]	DC50 (BRAF V600E; read-out: BRaf V600E DC50; half maximal degradation, T-Rex 293 HA-BRAF V600E) [nM]	DC50 (BRAF G466V; read-out: BRaf G466V DC50; half maximal degradation, T-Rex 293 HA-BRAF G466V) [nM]
O=C1CCC(N2Cc3cc(C4CCN(C[C@@H]5C[C@H]6CC[C@@H](C5)N6c5ccc(-c6cnc7[nH]cc(C(=O)c8c(F)ccc(NS(=O)(=O)N9CC[C@@H](F)C9)c8F)c7c6)cc5)CC4)ccc3C2=O)C(=O)N1 (stereo partly drawn) [Compound 180, (3R)-N-[3-(5-{4-[(1R,3S,5S)-3-({4-[2-(2,6-dioxopiperidin-3-yl)-1-oxo-2,3-dihydro-1H-isoindol-5-yl]piperidin-1-yl}methyl)-8-azabicyclo[3.2.1]octan-8-yl]phenyl}-1H-pyrrolo[2,3-b]pyridine-3-carbonyl)-2,4-difluorophenyl]-3-fluoropyrrolidine-1-sulfonamide]	5 to 50	35 to 70	1 to 10	> 70	–	–
O=C1CCC(N2Cc3cc(N4CCC(CC5CCN(c6ccc(-c7cnc8[nH]cc(C(=O)c9c(F)ccc(NS(=O)(=O)N%10CC[C@@H](F)C%10)c9F)c8c7)cc6)CC5)CC4)ccc3C2=O)C(=O)N1 (stereo partly drawn) [Compound 181, (3R)-N-[3-(5-{4-[4-({1-[2-(2,6-dioxopiperidin-3-yl)-1-oxo-2,3-dihydro-1H-isoindol-5-yl]piperidin-4-yl}methyl)piperidin-1-yl]phenyl}-1H-pyrrolo[2,3-b]pyridine-3-carbonyl)-2,4-difluorophenyl]-3-fluoropyrrolidine-1-sulfonamide]	–	< 35	–	35 to 70	50 to 500	10 to 30
CN(CCN1CCN(c2ccc3c(c2)CN(C2CCC(=O)NC2=O)C3=O)CC1)[C@H]1C[C@@H](Oc2ccc(-c3cnc4[nH]cc(C(=O)c5c(F)ccc(NS(=O)(=O)N6CC[C@@H](F)C6)c5F)c4c3)cc2)C1 (stereo partly drawn) [Compound 182, (3R)-N-[2,4-difluoro-3-(5-{4-[(1s,3s)-3-[(2-{4-[2-(2,6-dioxopiperidin-3-yl)-1-oxo-2,3-dihydro-1H-isoindol-5-yl]piperazin-1-yl}ethyl)(methyl)amino]cyclobutoxy)phe-nyl}-1H-pyrrolo[2,3-b]pyridine-3-carbonyl)phenyl]-3-fluoropyrrolidine-1-sulfonamide]	50 to 500	35 to 70	1 to 10	> 70	–	–
CC1(N2Cc3cc(C4CCN(CC5CCN(c6ccc(-c7cnc8[nH]cc(C(=O)c9c(F)ccc(NS(=O)(=O)N%10CC[C@@H](F)C%10)c9F)c8c7)cc6)CC5)CC4)ccc3C2=O)CCC(=O)NC1=O (stereo partly drawn) [Compound 183, (3R)-N-[2,4-difluoro-3-(5-{4-[4-({4-[2-(3-methyl-2,6-dioxopiperidin-3-yl)-1-oxo-2,3-dihydro-1H-isoindol-5-yl]piperidin-1-yl}methyl)piperidin-1-yl]phenyl}-1H-pyrrolo[2,3-b]pyridine-3-carbonyl)phenyl]-3-fluoropyrrolidine-1-sulfonamide]	50 to 500	< 35	> 30	–	–	–
COc1cc(C2CCN(CC3CCN(c4ccc(-c5cnc6[nH]cc(C(=O)c7c(F)ccc(NS(=O)(=O)N8CC[C@@H](F)C8)c7F)c6c5)cc4)CC3)CC2)ccc1C(=O)NC1CCC(=O)NC1=O (stereo partly drawn) [Compound 184, 4-(1-{[1-(4-{3-[2,6-difluoro-3-({[(3R)-3-fluoropyrrolidin-1-yl]sulfonyl}amino)benzoyl]-1H-pyrrolo[2,3-b]pyridin-5-yl}phenyl)piperidin-4-yl]methyl}piperidin-4-yl)-N-(2,6-dioxopiperidin-3-yl)-2-methoxybenzamide]	5 to 50	< 35	1 to 10	35 to 70	–	–
COc1cc([C@H](O)CCN2CCN(c3ccc(-c4cnc5[nH]cc(C(=O)c6c(F)ccc(NS(=O)(=O)N7CC[C@@H](F)C7)c6F)c5c4)cc3)CC2)cc2c1C(=O)N([C@H]1CCC(=O)NC1=O)C2 [Compound 186, (3R)-N-{3-[5-(4-{4-[(3R)-3-{2-[(3S)-2,6-dioxopiperidin-3-yl]-7-methoxy-1-oxo-2,3-dihydro-1H-isoindol-5-yl}-3-hydroxypropyl]piperazin-1-yl}phenyl)-1H-pyrrolo[2,3-b]pyridine-3-carbonyl]-2,4-difluorophenyl}-3-fluoropyrrolidine-1-sulfonamide]	50 to 500	35 to 70	1 to 10	> 70	–	–
COc1cc([C@H](O)CCN2CCN(c3ccc(-c4cnc5[nH]cc(C(=O)c6c(F)ccc(NS(=O)(=O)N7CC[C@@H](F)C7)c6F)c5c4)cc3)CC2)cc2c1C(=O)N([C@@H]1CCC(=O)NC1=O)C2 [Compound 187, (3R)-N-{3-[5-(4-{4-[(3R)-3-{2-[(3R)-2,6-dioxopiperidin-3-yl]-7-methoxy-1-oxo-2,3-dihydro-1H-isoindol-5-yl}-3-hydroxypropyl]piperazin-1-yl}phenyl)-1H-pyrrolo[2,3-b]pyridine-3-carbonyl]-2,4-difluorophenyl}-3-fluoropyrrolidine-1-sulfonamide]	50 to 500	35 to 70	1 to 10	> 70	–	–
O=C1CCC(N2Cc3cc(C4CCN(C[C@H]5C[C@H]6CC[C@@H](C5)N6c5ccc(-c6cnc7[nH]cc(C(=O)c8c(F)ccc(NS(=O)(=O)N9CC[C@@H](F)C9)c8F)c7c6)cc5)CC4)ccc3C2=O)C(=O)N1 (stereo partly drawn) [Compound 188, (3R)-N-[3-(5-{4-[(1R,3R,5S)-3-({4-[2-(2,6-dioxopiperidin-3-yl)-1-oxo-2,3-dihydro-1H-isoindol-5-yl]piperidin-1-yl}methyl)-8-azabicyclo[3.2.1]octan-8-yl]phenyl}-1H-pyrrolo[2,3-b]pyridine-3-carbonyl)-2,4-difluorophenyl]-3-fluoropyrrolidine-1-sulfonamide]	5 to 50	35 to 70	1 to 10	> 70	–	–
